# Experimental data published in patent US9750449B2, “Method of assessing skin” (Johnson & Johnson Consumer Inc., priority 2003, dated 2017).
# How the values were obtained:
# facial skin [1] = experiment: In vivo facial skin fluorescence after daily topical retinol cream versus vehicle; parameters: species or system human; conditions: cheek
# Text: In vivo fluorescence spectroscopy can be performed for example using a fiber optic probe attached to a spectrofluorimeter (e.g. the model SkinSkan (J Y Horiba, Edison, N.J.)). The method requires: a) a UV radiation source (e.g., a Xenon arc lamp or a mercury lamp), b) a method of selecting the radiation wavelength (e.g. a monochromator, a prism, or a grating), c) a method of delivery of the radiation to the tissue (e.g. a fiber bundle), d) a method of collection of the emitted radiation from the tissue (e.g. a fiber bundle), e) a method of selecting the emitted radiation wavelength (e.g. a monochromator, a prism, or a grating), and f) a method of detecting the emitted radiation (e.g. a photomultiplier, a single photodiode, a photodiode array, or a CCD array). See, e.g., Stamatas G N, et al., J Invest Dermatol 118(2):295-302, 2002.
# Measurements were preformed by placing the fiber optic probe in contact with the skin site of interest. Before each set of measurements, the instrument was spectrally calibrated for excitation and emission in the region 250-650 nm. […]
# Acquisition of excitation spectra was the preferred method of measuring in vivo skin fluorescence. […]
# In order to account for variations in skin native pigmentation that attenuates the detected fluorescence signal, fluorescence intensity was normalized with the diffuse reflectance signal of the same skin site at the corresponding wavelength. […] The measured fluorescence in this wavelength region arises from the dermis (Gillies et al, 2000, Kollias et al, 1998), which means that excitation light has to travel through the whole epidermis where it is attenuated by epidermal melanin and proteins, both of which absorb strongly in the UV. […] Furthermore, the intensity of the light source is low below 300 nm and normalization of the fluorescence by the diffuse reflectance signal in this wavelength range amplified the noise. […] To overcome this problem, the tryptophan fluorescence signal may be normalized to another fluorescence band, rather than to the diffuse reflectance value at 295 nm. […]
# facial skin [2] = experiment: Visual observation of the appearance of wrinkles in treated areas; assay type: in vivo, human; conditions: cream with 0.15% retinol applied daily, vehicle cream alone had no effect
structure (smiles),measurement,setting,value
CC1=C(/C=C/C(C)=C/C=C/C(C)=C/CO)C(C)(C)CCC1 [retinol],rate of decrease in the 295 nm band fluorescence,"facial skin [1]; cream with 0.15% retinol and SPF 15 sunscreen applied daily, measured at baseline, 3 and 6 months, placebo −0.04 units/month",−0.01 units/month
same,change of the 390 nm band fluorescence over the period of the study,"facial skin [1]; cream with 0.15% retinol applied daily, 6 months",did not significantly change
same,normalized tryptophan fluorescence values (I295nm/I390nm) over time,"facial skin [1]; cream with 0.15% retinol applied daily, 6 months, p<0.05 versus vehicle (−0.062±0.029 ratio units per month)",remained virtually constant
same,appearance of wrinkles (visual observations),facial skin [2],reduction in the appearance of wrinkles
